Measured values as given in patent publication US5789439A, “Pharmaceutical use of forskolin derivatives” (Nippon Kayaku Kabushiki Kaisha, priority 1990, dated 1998).
pIC50: −log10 of the molar value. Counter-ions that a name gives are not always drawn.

How the values were obtained:
[1] = test system: total peripheral vascular resistance; assay: Effect on peripheral vascular resistance in human; assay type: in vivo; details: i.v. 0.4 μg/kg/min, 40 minutes from start; four healthy adults; saline 1.7%
Method: (3) Effect on peripheral vascular resistance in human was examined.
A freeze-dried preparation comprising NKH-477 was dissolved in a physiological saline and continuously administered intravenously to four healthy adults at a rate of 0.4 μg/kg/min for one hour.
The rate of reduction of total peripheral vascular resistance after 40 minutes from the start of administration was determined for each subject from mean blood pressure and cardiac output calculated from Ultrasonic cardiography (UCG).

[2] = test system: total peripheral vascular resistance; assay: Effect on peripheral vascular resistance in anesthetized dogs; assay type: in vivo, dog; details: for Change in total peripheral vascular resistance: mean ± SE
Method: (2) Effect on peripheral vascular resistance in an anesthetized dogs was examined. Blood pressure was measured with a pressure transducer (CP-01 mfd. by Century Technology Co.) connected to a polyethylene tube inserted into a right femoral artery of a dog anesthetized with pentobarbital, and the cardiac output was measured according to a thermodilution method by using a dilution type cardiac output counter (MLC-4200 mfd. by Nihon Kohden K. K.) and a 7F thermodilution catheter (TC-704 mfd. by Nihon Kohden K. K.) inserted into the pulmonary artery through the right femoral vein. The total peripheral vascular resistance was determined by dividing the mean blood pressure by the cardiac output. NKH-477 was dissolved in a physiological saline and infused into a right cephalic vein at rates of 0.15, 0.3 and 0.6 μg/kg/min (flow rate: 0.2 ml/min) for 2 hours by using a continuous injection pump (Model 975C mfd. by Harvard Corp.). For the control, physiological saline was similarly infused at a rate of 0.2 ml/min.

[3] = test system: collagen-induced aggregation; assay: Collagen-induced aggregation after intravenous administration to healthy adults; assay type: in vivo, healthy adults (human); details: i.v. 0.8 μg/kg/min for one hour, mean of four subjects
Method: (§1) A freeze-dried preparation comprising NKH-477 was dissolved in a physiological saline and administered intravenously to four healthy adults at a rate of 0.8 μg/kg/min for one hour. The degrees of ADP-induced aggregation, epinephrine-induced aggregation and collagen-induced aggregation upon end of administration were measured and compared with those before administration (each figure is the average of measurements on the four subjects).

[4] = test system: NB-1 cells (a human neuroblastoma strain); assay: Differentiation inducing effect for NB-1 cells; assay type: cell-based; details: 4-hour incubation
Method: The differentiation inducing effect for the NB-1 cells (a human neuroblastoma strain: cell strain derived from neuroblastoma generated in infantile adrenal gland) was examined. The NB-1 cells were applied to a 96-well plate at a rate of 2×10^3 cells/well and precultured for 3 days. After attachment and growth were stabilized, the medium (RPMI 1640+10% fetal calf serum+SM.PC) was exchanged and a 10 μl solution of each test compound was added. Then, the cells were kept under constant observation to determine the occurrence or non-occurrence of differentiation. 2 mM (1.037 mg/ml) of dibutyryl cAMP dissolved in RPMI 1640 was used as positive control. NKH-477 and 14,15-dihydro-6-(3-dimethylaminopropionyl)forskolin hydrochloride were dissolved in a physiological saline. Forskolin was dissolved in DMSO and diluted with a physiological saline. The criterion for judgment of morphological change in differentiation is as follows. The figures in the parentheses are the ratio of the differentiated cells to the whole cells. It was confirmed that DMSO was totally devoid of differentiation inducing and promoting action at the concentrations used in this test.

ADP-induced aggregation = ADP-induced aggregation after intravenous administration to healthy adults; assay type: in vivo, healthy adults (human); details: i.v. 0.8 μg/kg/min for one hour, mean of four subjects
Method: as §1

femoral blood flow = assay: Effect on femoral blood flow in anesthetized dogs; assay type: in vivo, dog; details: for Increase in femoral blood flow rate: mean ± SE
Method: (1) Effect on femoral blood flow in anesthetized dogs was tested.
A non-cannulating probe (FF-030T mfd. by Nihon Kohden K. K.) of an electromagnetic flow meter (MFV-2100 mfd. by Nihon Kohden K. K.) was placed around the left femoral artery of a dog anesthetized with pentobarbital to measure femoral bloow flow rate. The femoral blood flow rate was recorded on an ink-written recorder (WI-681G by Nihon Kohden K. K.).
NKH-477 was dissolved in a physiological saline and injected into the right cephalic vein through a Nelaton's tube.

canine coronary artery = assay: Spasmolytic effect on KCl-induced contraction, canine coronary artery ring; details: for Inhibition rate, Coronary artery: 30 mM KCl, papaverine 10^-4 M = 100%, mean ± SE, n = 6
Method: The canine coronary and basilar arteries were extirpated under anesthesia with pentobarbital to prepare the 3 mm wide ring preparation. Each preparation was suspended in a 10-ml organ bath filled with a Krebs-Henseleit solution by applying a static tension of 1.5 g (for the coronary artery) and 1.0 g (for the basilar artery). The nutrient solution was maintained at 37° C. and aerated with a 95% 02 /5% CO2 gas. The isometric mascular tension was measured with an FD pickup (TB-611T mfd. by Nihon Kohden K. K.) and recorded on a recorder (TI-104 mfd. by Tokai IRIKA K. K.).
After about 2 hours of equilibrium time, contraction was induced with 30 mM of KCl (for coronary artery) and 35 mM of KCl (for basilar artery), and after contraction was stabilized, NKH-477 was administered cumulatively. The spasmolytic effect was expressed as percentages of the inhibition, with the maximal inhibition obtained with papaverine hydrochloride (10^-4 M) being supposed to have shown 100% inhibition.

C=C[C@@]1(C)CC(=O)[C@]2(O)[C@@]3(C)[C@@H](O)CCC(C)(C)[C@@H]3[C@H](OC(=O)CCN(C)C)[C@H](OC(C)=O)[C@@]2(C)O1 [NKH-477, 6-(3-dimethylaminopropionyl)forskolin hydrochloride]
average reduction rate of total peripheral vascular resistance [1]: 19.7% | Change in total peripheral vascular resistance ([2]; 0.15 μg/kg/min, 10 min from start of infusion, control 2.1 ± 1.5): -2.7 ± 2.4% | Change in total peripheral vascular resistance ([2]; 0.15 μg/kg/min, 30 min after cessation of infusion, control 31.4 ± 13.9): 7.4 ± 7.4% | Change in total peripheral vascular resistance ([2]; 0.15 μg/kg/min, 30 min from start of infusion, control 4.0 ± 2.3): -6.2 ± 3.7% | Change in total peripheral vascular resistance ([2]; 0.15 μg/kg/min, 60 min after cessation of infusion, control 29.1 ± 9.7): 15.7 ± 10.4% | Change in total peripheral vascular resistance ([2]; 0.15 μg/kg/min, 60 min from start of infusion, control 13.8 ± 3.4): -9.1 ± 5.7% | Change in total peripheral vascular resistance ([2]; 0.15 μg/kg/min, 120 min after cessation of infusion, control 26.8 ± 12.5): 12.8 ± 7.2% | Change in total peripheral vascular resistance ([2]; 0.15 μg/kg/min, 120 min from start of infusion, control 20.5 ± 9.2): -5.7 ± 6.6% | Change in total peripheral vascular resistance ([2]; 0.3 μg/kg/min, 10 min from start of infusion, control 2.1 ± 1.5): -3.7 ± 2.9% | Change in total peripheral vascular resistance ([2]; 0.3 μg/kg/min, 30 min after cessation of infusion, control 31.4 ± 13.9): 6.7 ± 7.0% | Change in total peripheral vascular resistance ([2]; 0.3 μg/kg/min, 30 min from start of infusion, control 4.0 ± 2.3): -10.4 ± 3.1% | Change in total peripheral vascular resistance ([2]; 0.3 μg/kg/min, 60 min after cessation of infusion, control 29.1 ± 9.7): 17.1 ± 6.0% | Change in total peripheral vascular resistance ([2]; 0.3 μg/kg/min, 60 min from start of infusion, control 13.8 ± 3.4): -10.2 ± 4.1% | Change in total peripheral vascular resistance ([2]; 0.3 μg/kg/min, 120 min after cessation of infusion, control 26.8 ± 12.5): 17.2 ± 9.2% | Change in total peripheral vascular resistance ([2]; 0.3 μg/kg/min, 120 min from start of infusion, control 20.5 ± 9.2): -11.5 ± 4.7% | Change in total peripheral vascular resistance ([2]; 0.6 μg/kg/min, 10 min from start of infusion, control 2.1 ± 1.5): -18.3 ± 8.6% | Change in total peripheral vascular resistance ([2]; 0.6 μg/kg/min, 30 min after cessation of infusion, control 31.4 ± 13.9): -13.4 ± 7.6% | Change in total peripheral vascular resistance ([2]; 0.6 μg/kg/min, 30 min from start of infusion, control 4.0 ± 2.3): -28.1 ± 5.9% | Change in total peripheral vascular resistance ([2]; 0.6 μg/kg/min, 60 min after cessation of infusion, control 29.1 ± 9.7): -4.1 ± 9.1% | Change in total peripheral vascular resistance ([2]; 0.6 μg/kg/min, 60 min from start of infusion, control 13.8 ± 3.4): -29.0 ± 6.4% | Change in total peripheral vascular resistance ([2]; 0.6 μg/kg/min, 120 min after cessation of infusion, control 26.8 ± 12.5): 11.8 ± 12.9% | Change in total peripheral vascular resistance ([2]; 0.6 μg/kg/min, 120 min from start of infusion, control 20.5 ± 9.2): -28.0 ± 5.4% | recovery of total peripheral vascular resistance ([2]; after cessation of the infusion): substantially restored in 2 hours after cessation of the infusion | total peripheral vascular resistance, course in words ([2]; i.v. infusion 0.15-0.6 μg/kg/min for 2 hours): decreased gradually after the start of infusion | Collagen-induced aggregation upon end of administration ([3]; before administration 70.3%): 45.8% | Inhibition rate, Collagen-induced aggregation [3]: 38.7% | Effect (differentiation inducing) ([4]; Dose 1.56 μM): ± (slight (<20%)) | Effect (differentiation inducing) ([4]; Dose 6.25 μM): ++ (heavy (>80%)) | Effect (differentiation inducing) ([4]; Dose 25.00 μM): ++ (heavy (>80%)) | Effect (differentiation inducing) ([4]; Dose 100.00 μM): ++ (heavy (>80%)) | ADP-induced aggregation upon end of administration (ADP-induced aggregation; before administration 68.5%): 57.5% | Inhibition rate, ADP-induced aggregation (ADP-induced aggregation): 21.7% | Increase in femoral blood flow rate (femoral blood flow; 1 μg/kg i.v., n = 6 (SE 2.9 printed)): 7.6% | Increase in femoral blood flow rate (femoral blood flow; 3 μg/kg i.v., n = 6 (SE 5.2 printed)): 22.9% | Increase in femoral blood flow rate (femoral blood flow; 10 μg/kg i.v., n = 6 (SE 17.7 printed)): 61.7% | blood flow rate in the femoral artery (femoral blood flow; intravenous injection of 1-10 μg/kg): increased the blood flow rate in the femoral artery dose-dependently | Increase in femoral blood flow rate (femoral blood flow; printed 30 μmg/kg i.v., n = 6 (SE 28.7 printed)): 62.2% | pIC50 (canine coronary artery; Canis lupus familiaris, KCl-induced contraction, n=6): 7.17 | inhibitory action against KCl-induced contraction in the coronary artery (canine coronary artery; Table 3, in words): concentration-dependent inhibitory action | Inhibition rate, Coronary artery (canine coronary artery; line 1 of 5, printed 10^-9 M): 6.1 ± 1.6% | Inhibition rate, Coronary artery (canine coronary artery; line 2 of 5, printed 10^-9 M): 23.3 ± 3.2% | Inhibition rate, Coronary artery (canine coronary artery; line 3 of 5, printed 10^-9 M): 58.8 ± 3.9% | Inhibition rate, Coronary artery (canine coronary artery; line 4 of 5, printed 10^-9 M): 86.7 ± 1.5% | Inhibition rate, Coronary artery (canine coronary artery; line 5 of 5, printed 10^-9 M): 94.5 ± 1.3%
